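Test compounds were applied to cells in 96-well plates for 48 hours at 5 doses. GI50 = concentration required for 50% inhibition of growth. The concentration for full growth arrest is given as TGI.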
How the values were obtained:
Assay in all cases: growth of human tumour cells (NCI), 48 h
MDA-MB-231 breast = tested on: MDA-MB-231 breast
NCI-H23 lung = tested on: NCI-H23 lung
IGROV1 ovarian = tested on: IGROV1 ovarian
OVCAR-5 ovarian = tested on: OVCAR-5 ovarian
SR leukemia = tested on: SR leukemia
EKVX NSCLC = tested on: EKVX NSCLC
BT-549 breast = tested on: BT-549 breast
M14 melanoma = tested on: M14 melanoma
MALME-3M melanoma = tested on: MALME-3M melanoma
SNB-75 CNS = tested on: SNB-75 CNS
HOP-62 NSCLC = tested on: HOP-62 NSCLC
RPMI-8226 leukemia = tested on: RPMI-8226 leukemia
KM12 colon = tested on: KM12 colon
T-47D breast = tested on: T-47D breast
SK-OV-3 ovarian = tested on: SK-OV-3 ovarian
DU-145 prostate = tested on: DU-145 prostate
NCI-H226 lung = tested on: NCI-H226 lung
UACC-257 melanoma = tested on: UACC-257 melanoma
MCF7 breast = tested on: MCF7 breast
MOLT-4 leukemia = tested on: MOLT-4 leukemia
UO-31 renal = tested on: UO-31 renal
SK-MEL-5 melanoma = tested on: SK-MEL-5 melanoma
HCT-116 colon = tested on: HCT-116 colon
NCI-H460 lung = tested on: NCI-H460 lung
SK-MEL-28 melanoma = tested on: SK-MEL-28 melanoma
CAKI-1 renal = tested on: CAKI-1 renal
K-562 leukemia = tested on: K-562 leukemia
SF-539 CNS = tested on: SF-539 CNS
PC-3 prostate = tested on: PC-3 prostate
LOX IMVI melanoma = tested on: LOX IMVI melanoma
HS 578T breast = tested on: HS 578T breast
ACHN renal = tested on: ACHN renal
786-0 renal = tested on: 786-0 renal
CCRF-CEM leukemia = tested on: CCRF-CEM leukemia
HCC-2998 colon = tested on: HCC-2998 colon
NCI/ADR-RES ovarian = tested on: NCI/ADR-RES ovarian
OVCAR-8 ovarian = tested on: OVCAR-8 ovarian
A498 renal = tested on: A498 renal
SNB-19 CNS = tested on: SNB-19 CNS
SW-620 colon = tested on: SW-620 colon
TK-10 renal = tested on: TK-10 renal
MDA-N = tested on: MDA-N
UACC-62 melanoma = tested on: UACC-62 melanoma
OVCAR-4 ovarian = tested on: OVCAR-4 ovarian
U251 CNS = tested on: U251 CNS
OVCAR-3 ovarian = tested on: OVCAR-3 ovarian
HOP-92 NSCLC = tested on: HOP-92 NSCLC
HCT-15 colon = tested on: HCT-15 colon
SN12C renal = tested on: SN12C renal
SF-295 CNS = tested on: SF-295 CNS
HL-60(TB) leukemia = tested on: HL-60(TB) leukemia
A549 NSCLC = tested on: A549 NSCLC
HT29 colon = tested on: HT29 colon
MDA-MB-435 = tested on: MDA-MB-435
RXF 393 renal = tested on: RXF 393 renal
SK-MEL-2 melanoma = tested on: SK-MEL-2 melanoma
SF-268 CNS = tested on: SF-268 CNS
COLO 205 colon = tested on: COLO 205 colon
NCI-H522 lung = tested on: NCI-H522 lung

CCc1nc(N)nc(N)c1-c1ccc2c(c1)nnn2CCc1ccccc1
TGI (MDA-MB-231 breast): > 72.4 µM
TGI (NCI-H23 lung): > 64.9 µM
TGI (IGROV1 ovarian): > 70.3 µM
TGI (OVCAR-5 ovarian): > 82.5 µM
TGI (SR leukemia): 49.5 µM
TGI (EKVX NSCLC): > 75.8 µM
TGI (BT-549 breast): > 69 µM
TGI (M14 melanoma): > 65.9 µM
TGI (MALME-3M melanoma): 49.5 µM
TGI (SNB-75 CNS): 64.1 µM
TGI (HOP-62 NSCLC): > 69.9 µM
TGI (RPMI-8226 leukemia): 51.8 µM
TGI (KM12 colon): > 64.1 µM
TGI (T-47D breast): 64.5 µM
TGI (SK-OV-3 ovarian): > 75.2 µM
TGI (DU-145 prostate): > 65.2 µM
TGI (NCI-H226 lung): > 71.8 µM
TGI (UACC-257 melanoma): > 68.8 µM
TGI (MCF7 breast): > 70 µM
TGI (MOLT-4 leukemia): 50.2 µM
TGI (UO-31 renal): > 60.6 µM
TGI (SK-MEL-5 melanoma): 32.2 µM
TGI (HCT-116 colon): > 61.1 µM
TGI (NCI-H460 lung): 51.2 µM
TGI (SK-MEL-28 melanoma): > 71.5 µM
TGI (CAKI-1 renal): > 100 µM
TGI (K-562 leukemia): > 51.1 µM
TGI (SF-539 CNS): > 68.9 µM
TGI (PC-3 prostate): > 64.7 µM
TGI (LOX IMVI melanoma): > 65 µM
TGI (HS 578T breast): > 85 µM
TGI (ACHN renal): > 70.1 µM
TGI (786-0 renal): 64.4 µM
TGI (CCRF-CEM leukemia): > 69.9 µM
TGI (HCC-2998 colon): 51.4 µM
TGI (NCI/ADR-RES ovarian): 68.8 µM
TGI (OVCAR-8 ovarian): > 64.9 µM
TGI (A498 renal): > 79 µM
TGI (SNB-19 CNS): 86.4 µM
TGI (SW-620 colon): > 66.5 µM
TGI (TK-10 renal): > 83.7 µM
TGI (MDA-N): > 68.3 µM
TGI (UACC-62 melanoma): > 65.7 µM
TGI (OVCAR-4 ovarian): > 100 µM
TGI (U251 CNS): > 70.5 µM
TGI (OVCAR-3 ovarian): > 70.1 µM
TGI (HOP-92 NSCLC): > 79.6 µM
TGI (HCT-15 colon): > 63.2 µM
TGI (SN12C renal): > 73.5 µM
TGI (SF-295 CNS): 57.1 µM
TGI (HL-60(TB) leukemia): 35.3 µM
TGI (A549 NSCLC): > 100 µM
TGI (HT29 colon): 56.1 µM
TGI (MDA-MB-435): > 68.7 µM
TGI (RXF 393 renal): > 73.8 µM
TGI (SK-MEL-2 melanoma): 61.9 µM
TGI (SF-268 CNS): > 64.2 µM
TGI (COLO 205 colon): 42 µM
TGI (NCI-H522 lung): 33.9 µM

O=c1c(Br)c(-c2ccccc2)[nH]c2ccccc12
TGI (MDA-MB-231 breast): 11.8 µM
TGI (NCI-H23 lung): > 100 µM
GI50 (IGROV1 ovarian): > 89.4 µM
TGI (IGROV1 ovarian): > 100 µM
GI50 (OVCAR-5 ovarian): > 100 µM
TGI (OVCAR-5 ovarian): > 100 µM
TGI (SR leukemia): > 100 µM
GI50 (EKVX NSCLC): 41.5 µM
TGI (EKVX NSCLC): > 100 µM
TGI (BT-549 breast): > 100 µM
TGI (M14 melanoma): > 100 µM
TGI (MALME-3M melanoma): > 100 µM
GI50 (SNB-75 CNS): 63.1 µM
TGI (SNB-75 CNS): > 100 µM
TGI (HOP-62 NSCLC): > 100 µM
TGI (RPMI-8226 leukemia): > 100 µM
GI50 (KM12 colon): 5.63 µM
TGI (KM12 colon): 63.8 µM
GI50 (T-47D breast): 36.4 µM
TGI (T-47D breast): > 100 µM
TGI (SK-OV-3 ovarian): > 100 µM
TGI (DU-145 prostate): > 100 µM
GI50 (NCI-H226 lung): 37.1 µM
TGI (NCI-H226 lung): > 100 µM
TGI (UACC-257 melanoma): 98 µM
TGI (MCF7 breast): > 100 µM
GI50 (MOLT-4 leukemia): 20.8 µM
TGI (MOLT-4 leukemia): > 75.6 µM
TGI (UO-31 renal): 6.58 µM
GI50 (SK-MEL-5 melanoma): 13.6 µM
TGI (SK-MEL-5 melanoma): 29.9 µM
TGI (HCT-116 colon): > 100 µM
GI50 (NCI-H460 lung): 3.54 µM
TGI (NCI-H460 lung): > 100 µM
TGI (SK-MEL-28 melanoma): > 100 µM
GI50 (CAKI-1 renal): 0.066 µM
TGI (CAKI-1 renal): 0.892 µM
GI50 (K-562 leukemia): 28.9 µM
TGI (K-562 leukemia): > 100 µM
TGI (SF-539 CNS): > 100 µM
GI50 (PC-3 prostate): 23.6 µM
TGI (PC-3 prostate): > 78.3 µM
TGI (LOX IMVI melanoma): > 100 µM
TGI (HS 578T breast): > 100 µM
TGI (ACHN renal): > 100 µM
TGI (CCRF-CEM leukemia): > 100 µM
GI50 (HCC-2998 colon): > 100 µM
TGI (HCC-2998 colon): > 100 µM
TGI (NCI/ADR-RES ovarian): > 100 µM
TGI (OVCAR-8 ovarian): > 100 µM
GI50 (A498 renal): 31.6 µM
TGI (A498 renal): > 100 µM
GI50 (SNB-19 CNS): > 100 µM
TGI (SNB-19 CNS): > 100 µM
TGI (SW-620 colon): > 100 µM
TGI (TK-10 renal): > 100 µM
TGI (MDA-N): > 85.4 µM
TGI (UACC-62 melanoma): > 100 µM
TGI (OVCAR-4 ovarian): > 100 µM
TGI (U251 CNS): > 100 µM
TGI (OVCAR-3 ovarian): > 100 µM
GI50 (HOP-92 NSCLC): 19 µM
TGI (HOP-92 NSCLC): > 100 µM
TGI (HCT-15 colon): > 100 µM
GI50 (SN12C renal): > 100 µM
TGI (SN12C renal): > 100 µM
GI50 (SF-295 CNS): 32.9 µM
TGI (SF-295 CNS): > 100 µM
TGI (HL-60(TB) leukemia): 56.6 µM
GI50 (A549 NSCLC): 0.168 µM
TGI (A549 NSCLC): 1.12 µM
TGI (HT29 colon): > 100 µM
TGI (MDA-MB-435): > 100 µM
TGI (RXF 393 renal): > 100 µM
GI50 (SK-MEL-2 melanoma): > 100 µM
TGI (SK-MEL-2 melanoma): > 100 µM
GI50 (SF-268 CNS): > 100 µM
TGI (SF-268 CNS): > 100 µM
TGI (COLO 205 colon): > 100 µM
GI50 (NCI-H522 lung): > 100 µM
TGI (NCI-H522 lung): > 100 µM
